Reference: patent publication EP4741383A1, “COMPOUND AND USE THEREOF AS ANTI-CANCER DRUG” (Tyligand Bioscience (Shanghai) Limited, priority 2023, dated 2025)

Legend:
Assay type in all cases: biochemical
SSU72 = target: T1, SSU72 (Homo sapiens, UniProt Q9NP77); assay: Tyrosine phosphatase selectivity (pNPP substrate), SSU72; conditions: for IC50: SSU72, pNPP substrate; for IC50PTP/IC50SHP2 SSU72: selectivity ratio SSU72 over SHP2
T1 construct: made in house; host or cells: E. coli
T1 sequence (Q9NP77 1-194): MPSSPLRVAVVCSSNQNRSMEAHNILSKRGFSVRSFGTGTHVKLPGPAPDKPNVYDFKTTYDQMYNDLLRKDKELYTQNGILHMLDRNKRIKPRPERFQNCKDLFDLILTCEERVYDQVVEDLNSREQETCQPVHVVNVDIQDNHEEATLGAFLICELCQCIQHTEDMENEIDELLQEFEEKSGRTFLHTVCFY
Method: (§1) This experiment evaluated the selectivity of the disclosed compounds against tyrosine phosphatases, including SHP1, HePTP, Laforin, LMWPTP, LYP, PTP1B, PRL2, SSU72, VHR, FAP1, STEP, CDC14A, CD45, MEG2, and PP5, all expressed and purified from E. coli.
(§2) Phosphatase activity was measured using p-nitrophenyl phosphate (pNPP) (Fisher Scientific) as the substrate in 50 mM 3,3-dimethylglutaric acid buffer (pH 7.0, containing 1 mM EDTA), with ionic strength adjusted to 0.15 M with NaCl. […] After 10-60 minutes, the reaction was quenched by adding 20 µL of 5 N NaOH. Wells without enzyme were used as controls for correction. The amount of the product, p-nitrophenol, was determined by measuring the absorbance at 405 nm using a Spectra MAX340 microplate spectrophotometer (Molecular Devices), with a molar extinction coefficient of 18000 M^-1cm^-1.
(§3) Data were analyzed using GraphPad Prism software. Dose-response curves were obtained by fitting data using the nonlinear S-curve regression Dose-response-inhibition equation, and IC50 values were calculated.

STEP = target: T2, STEP (Homo sapiens, UniProt P54829); assay: Tyrosine phosphatase selectivity (pNPP substrate), STEP; conditions: for IC50: STEP, pNPP substrate; for IC50PTP/IC50SHP2 STEP: selectivity ratio STEP over SHP2
T2 construct: made in house; host or cells: E. coli
T2 sequence (P54829 1-565): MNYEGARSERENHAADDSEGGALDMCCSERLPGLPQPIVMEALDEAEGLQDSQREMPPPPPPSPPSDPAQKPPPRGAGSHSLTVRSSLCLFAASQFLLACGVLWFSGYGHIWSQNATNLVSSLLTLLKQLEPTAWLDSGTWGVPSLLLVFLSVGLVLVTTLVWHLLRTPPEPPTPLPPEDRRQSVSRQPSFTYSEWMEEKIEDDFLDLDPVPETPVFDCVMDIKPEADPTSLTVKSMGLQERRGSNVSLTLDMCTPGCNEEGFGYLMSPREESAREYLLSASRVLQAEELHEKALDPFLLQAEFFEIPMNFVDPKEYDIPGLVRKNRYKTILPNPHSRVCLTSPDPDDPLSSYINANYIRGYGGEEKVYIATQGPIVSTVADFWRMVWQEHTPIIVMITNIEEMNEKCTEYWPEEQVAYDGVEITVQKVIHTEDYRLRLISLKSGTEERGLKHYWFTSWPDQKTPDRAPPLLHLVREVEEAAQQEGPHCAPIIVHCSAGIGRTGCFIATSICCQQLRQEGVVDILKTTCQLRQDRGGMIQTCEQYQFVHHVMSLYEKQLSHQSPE
Method: as §1, §2, §3

CDC14A = target: T3, CDC14A (Homo sapiens, UniProt Q9UNH5); assay: Tyrosine phosphatase selectivity (pNPP substrate), CDC14A; conditions: for IC50: CDC14A, pNPP substrate; for IC50PTP/IC50SHP2 CDC14A: selectivity ratio CDC14A over SHP2
T3 construct: made in house; host or cells: E. coli
T3 sequence (Q9UNH5 1-594): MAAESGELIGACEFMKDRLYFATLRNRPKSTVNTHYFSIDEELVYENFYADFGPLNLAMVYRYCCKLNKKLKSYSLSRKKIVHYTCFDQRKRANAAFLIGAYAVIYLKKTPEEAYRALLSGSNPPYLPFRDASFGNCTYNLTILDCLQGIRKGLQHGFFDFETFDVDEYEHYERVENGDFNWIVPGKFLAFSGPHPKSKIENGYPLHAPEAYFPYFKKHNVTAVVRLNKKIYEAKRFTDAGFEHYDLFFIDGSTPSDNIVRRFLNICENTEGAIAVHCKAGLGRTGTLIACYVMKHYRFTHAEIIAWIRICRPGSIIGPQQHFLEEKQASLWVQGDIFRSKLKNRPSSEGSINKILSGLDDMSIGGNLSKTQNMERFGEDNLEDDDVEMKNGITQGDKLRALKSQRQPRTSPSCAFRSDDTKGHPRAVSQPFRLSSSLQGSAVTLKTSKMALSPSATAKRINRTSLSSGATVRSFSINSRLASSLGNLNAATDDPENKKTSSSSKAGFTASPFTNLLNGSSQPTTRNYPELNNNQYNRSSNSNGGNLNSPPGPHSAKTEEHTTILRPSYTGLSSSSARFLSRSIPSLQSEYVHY
Method: as §1, §2, §3

MEG2 = target: T4, MEG2 (Homo sapiens, UniProt P43378); assay: Tyrosine phosphatase selectivity (pNPP substrate), MEG2; conditions: for IC50: MEG2, pNPP substrate; for IC50PTP/IC50SHP2 MEG2: selectivity ratio MEG2 over SHP2
T4 construct: made in house; host or cells: E. coli
T4 sequence (P43378 1-593): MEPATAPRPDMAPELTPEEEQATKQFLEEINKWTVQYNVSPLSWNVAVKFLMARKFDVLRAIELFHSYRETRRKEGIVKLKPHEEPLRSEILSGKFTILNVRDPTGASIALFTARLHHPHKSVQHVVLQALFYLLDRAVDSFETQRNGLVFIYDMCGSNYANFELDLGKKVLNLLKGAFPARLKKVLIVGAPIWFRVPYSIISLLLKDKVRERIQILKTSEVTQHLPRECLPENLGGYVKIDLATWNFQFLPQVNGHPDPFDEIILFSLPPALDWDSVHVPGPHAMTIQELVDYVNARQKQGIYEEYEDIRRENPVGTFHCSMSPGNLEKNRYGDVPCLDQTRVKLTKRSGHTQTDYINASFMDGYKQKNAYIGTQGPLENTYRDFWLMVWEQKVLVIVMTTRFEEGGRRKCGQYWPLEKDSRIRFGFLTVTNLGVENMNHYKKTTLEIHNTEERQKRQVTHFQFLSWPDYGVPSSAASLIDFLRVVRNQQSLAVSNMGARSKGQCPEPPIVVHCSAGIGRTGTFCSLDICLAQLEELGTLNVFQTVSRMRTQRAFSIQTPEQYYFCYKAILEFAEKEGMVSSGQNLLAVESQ
Method: as §1, §2, §3

| IC50 (SSU72) [µM] | IC50PTP/IC50SHP2 SSU72 (SSU72) | IC50 (STEP) [µM] | IC50PTP/IC50SHP2 STEP (STEP) | IC50 (CDC14A) [µM] | IC50PTP/IC50SHP2 CDC14A (CDC14A) | IC50 (MEG2) [µM] | IC50PTP/IC50SHP2 MEG2 (MEG2) | Compound |
| --- | --- | --- | --- | --- | --- | --- | --- | --- |
| < 3 | 103.4 | 4.5 | 155.2 | > 50 | 1724.1 | 22.1 | 762.1 | O=C(Nc1ccc(-c2ccsc2)cc1)C(=O)Nc1ccc(-c2cc3cc(F)c(-c4nnn[nH]4)cc3n2C2CCC2)cc1 [Example 4] |
| 1.3 | 12.0 | 4 | 37.0 | 16 | 148 |  |  | Cn1c(-c2cccc(NC(=O)C(=O)Nc3ccc(-c4ccsc4)cc3)c2)c(I)c2cc(C(=O)O)c(O)cc21 [Example 11a-1, reference compound] |
| 0.016 | 0.47 | 6.94 | 204.1 |  | 2941 | 1.77 | 52.0 | O=C(Nc1ccc(-c2cc3cc(F)c(-c4nnn[nH]4)cc3n2C2CCC2)cc1)C(=O)Nc1ccc(N2CCC3(CCOC3)CC2)cc1 [Example 67] |
|  |  | 8.23 | 171.5 | > 25 | 520.8 | 0.89 | 18.5 | CC1(n2c(-c3ccc(NC(=O)C(=O)Nc4ccc(N5CCC6(CCOC6)CC5)cc4)cc3)cc3cc(F)c(-c4nnn[nH]4)cc32)CCC1 [Example 68] |
| 0.09 | 1.2 | 1.83 | 25.4 |  | 1388 | 1.66 | 23.0 | O=C(Nc1ccc(-c2cc3cc(F)c(-c4nnn[nH]4)cc3n2C2CCC2)cc1)C(=O)Nc1ccc(N2CC3COCC3C2)cc1 (stereo not shown) [Example 114] |
| > 100 | 709.2 | 15.5 | 109.9 | > 100 | 709.2 | 2.41 | 17.1 | Cn1cc(-c2ccc(NC(=O)C(=O)Nc3ccc(-c4cc5cc(F)c(-c6noc(=O)[nH]6)cc5n4C4CCC4)cc3)cc2)cn1 [Example 123] |
| > 100 | 139.7 | > 100 | 139.7 | > 100 | 139.7 | > 100 | 139.7 | Cn1cc(-c2ccc(NC(=O)C(=O)Nc3ccc(-c4cc5cc(F)c(-c6nnc(C(F)(F)F)[nH]6)cc5n4C4CCC4)cc3)cc2)cn1 [Example 124] |
| < 3 | 120 | < 3 | 120 | > 50 | 2000 | < 3 | 120 | O=C(Nc1ccc(-c2ccsc2)cc1)C(=O)Nc1ccc(-c2oc3cc(F)c(-c4nnn[nH]4)cc3c2C2CCC2)cc1 [Example 130] |
| < 3 | 115.4 | 8.4 | 323.1 | > 50 | 1923.1 | 9.9 | 380.8 | O=C(Nc1ccc(-c2ccsc2)cc1)C(=O)Nc1ccc(-c2cc3cnc(-c4nnn[nH]4)nc3n2C2CCC2)cc1 [Example 131] |
| < 3 | 111.1 | 10.6 | 392.6 | > 50 | 1851.9 | 15.1 | 559.3 | O=C(Nc1ccc(-c2ccsc2)cc1)C(=O)Nc1ccc(-c2cc3cc(F)c(-c4nnn[nH]4)nc3n2C2CCC2)cc1 [Example 132] |

| Compound | IC50 (SSU72) [µM] | IC50PTP/IC50SHP2 SSU72 (SSU72) | IC50 (STEP) [µM] | IC50PTP/IC50SHP2 STEP (STEP) | IC50 (CDC14A) [µM] | IC50PTP/IC50SHP2 CDC14A (CDC14A) | IC50 (MEG2) [µM] | IC50PTP/IC50SHP2 MEG2 (MEG2) |
| --- | --- | --- | --- | --- | --- | --- | --- | --- |
| O=C(Nc1ccc(-c2cc3cc(F)c(-c4nnn[nH]4)cc3n2C2CCC2)cc1)C(=O)Nc1ccc(N2CCOCC2)cc1 [Example 47] | 0.09 | 1.4 | 0.77 | 12.2 |  | 1587 | 0.99 | 15.7 |
| O=C(Nc1ccc(-c2oc3cc(F)c(-c4nnn[nH]4)cc3c2C2CCC2)cc1)C(=O)Nc1ccc(N2CCC3(CCOC3)CC2)cc1 [Example 125] | > 100 | 1960.8 | 6.62 | 129.8 | > 100 | 1960.8 | 8.54 | 167.5 |
| O=C(Nc1ccc(-c2ccsc2)cc1)C(=O)Nc1ccc(-c2cc3ccc(-c4nnn[nH]4)nc3n2C2CCC2)cc1 [Example 129] | 35.8 | 606.8 | < 3 | 50.8 | 34.6 | 586.4 | 7.2 | 122.0 |
